Reference: patent US20240252488A1 (KOREA RESEARCH INSTITUTE OF CHEMICAL TECHNOLOGY, priority 2020, published 2024)

Legend:
MLKL [1] = target: T1, MLKL (Homo sapiens, UniProt Q8NB16); experiment: MLKL degradation assay in HepG2 cell line (western blot); type: cell-based; parameters: endogenous in cells; host or cells: HepG2 or HaCaT; conditions: cell line not given; for Degradation assay (Degradation %) 1 μM: compound 1 μM; for Degradation assay (Degradation %) 10 μM: compound 10 μM
T1 sequence (Q8NB16 1-471): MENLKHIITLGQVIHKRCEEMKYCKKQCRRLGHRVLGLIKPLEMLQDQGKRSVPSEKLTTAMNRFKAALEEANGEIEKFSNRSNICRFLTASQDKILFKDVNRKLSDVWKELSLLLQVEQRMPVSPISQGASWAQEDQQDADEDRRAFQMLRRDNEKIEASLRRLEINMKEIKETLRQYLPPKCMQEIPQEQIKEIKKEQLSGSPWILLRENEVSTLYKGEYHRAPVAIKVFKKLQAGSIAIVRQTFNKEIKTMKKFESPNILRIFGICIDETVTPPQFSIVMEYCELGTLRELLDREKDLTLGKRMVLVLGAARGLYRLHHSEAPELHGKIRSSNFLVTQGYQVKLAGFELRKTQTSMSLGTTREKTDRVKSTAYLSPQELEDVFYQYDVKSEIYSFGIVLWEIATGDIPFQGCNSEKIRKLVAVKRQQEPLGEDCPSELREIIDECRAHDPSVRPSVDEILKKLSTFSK
How it was run: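 HepG2 cells were exposed to compound at a final 1 or 10 μM for 20-24 hours at 37 °C, 5% CO2. RIPA lysates were normalized by BCA assay, 10-15 μg protein resolved by SDS-PAGE, and MLKL levels detected by western blot with chemiluminescence.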

MLKL [2] = target: T1, MLKL; experiment: Measurement of binding affinity with MLKL receptor (competitive binding assay, Kd); parameters: made in house; host or cells: HEK 293 cell line (T7 phage in E. coli BL21-derived host is also described)
How it was run: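 qPCR of MLKL eluted from liganded beads served as the read-out, from which Kd was derived. The protein was made in HEK 293 cells with a DNA tag, and test compounds competed with the bead-bound ligand at 0.9% final DMSO.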

FADD−/− Jurkat cells = experiment: Necroptosis inhibition assay, TNF-α-induced necroptosis (CellTiter-Glo 2.0); type: cell-based, human; conditions: TNF-α 15 ng/mL; for Necroptosis inhibition assay (Rescue %) 1 μM: compound 1 μM; for Necroptosis inhibition assay (Rescue %) 10 μM: compound 10 μM
How it was run: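 Cells at 5.0×10^5 cells/mL were pretreated with compound (final 0.1, 1 and 10 μM) for 30 minutes at room temperature, then given TNF-α at 15 ng/mL final. After 20 to 24 hours at 37° C, 5% CO2, viability was read as ATP luminescence to calculate cytotoxicity and necroptosis inhibition rate.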

Row | Degradation assay (Degradation %) 1 μM (MLKL [1]) | Degradation assay (Degradation %) 10 μM (MLKL [1]) | Kd (MLKL [2]) | SMILES | Necroptosis inhibition assay (Rescue %) 1 μM (FADD−/− Jurkat cells) | Necroptosis inhibition assay (Rescue %) 10 μM (FADD−/− Jurkat cells) | Necroptosis inhibition assay (Rescue %) 1 μM (FADD−/− Jurkat cells; FADD−/− Jurkat cells) | Necroptosis inhibition assay (Rescue %) 10 μM (FADD−/− Jurkat cells; FADD−/− Jurkat cells)
1 | 87.91% | 80.66% | 1.5 nM | Nc1ncc(-c2cnn(C3CCN(C[C@H]4CC[C@H](CNC(=O)COc5cccc6c5C(=O)N(C5CCC(=O)NC5=O)C6=O)CC4)CC3)c2)nc1C(=O)O[C@@H](C(=O)Nc1ccc(F)cc1)c1ccccc1 (stereo partly drawn) [TDH-345, (R)-2-((4-fluorophenyl)amino)-2-oxo-1-phenylethyl 3-amino-6-(1-(1-(((1r,4r)-4-((2-((2-(2,6-dioxopiperidin-3-yl)-1,3-dioxoisoindolin-4-yl)oxy)acetamido)methyl)cyclohexyl)methyl)piperidin-4-yl)-1H-pyrazol-4-yl)pyrazine-2-carboxylate] | 29.41% | 19.45% | – | –
2 | 55.12% | 69.64% | 1.7 nM | Nc1ncc(-c2cnn(C3CCN(CC4CN(C(=O)COc5cccc6c5C(=O)N(C5CCC(=O)NC5=O)C6=O)CCO4)CC3)c2)nc1C(=O)OC(C(=O)Nc1ccc(F)cc1)c1ccccc1 (stereo not drawn) [TDH-308, 2-((4-fluorophenyl)amino)-2-oxo-1-phenylethyl 3-amino-6-(1-(1-((4-(2-((2-(2,6-dioxopiperidin-3-yl)-1,3-dioxoisoindolin-4-yl)oxy)acetyl)morpholin-2-yl)methyl)piperidin-4-yl)-1H-pyrazol-4-yl)pyrazine-2-carboxylate] | 76.28% | 56.73% | – | –
3 | 93.86% | 86.43% | 2.3 nM | Nc1ncc(-c2cnn(C3CCN(C(=O)C4CCN(C(=O)CC5CCN(c6ccc7c(c6)C(=O)N(C6CCC(=O)NC6=O)C7=O)CC5)CC4)CC3)c2)nc1C(=O)O[C@@H](C(=O)Nc1ccc(F)cc1)c1ccccc1 (stereo partly drawn) [TDH-375, (R)-2-((4-fluorophenyl)amino)-2-oxo-1-phenylethyl 3-amino-6-(1-(1-(1-(2-(1-(2-(2,6-dioxopiperidin-3-yl)-1,3-dioxoisoindolin-5-yl)piperidin-4-yl)acetyl)piperidine-4-carbonyl)piperidin-4-yl)-1H-pyrazol-4-yl)pyrazine-2-carboxylate] | 30.67% | 20.44% | – | –
4 | 60.76% | 86.28% | 0.41 nM | Nc1ncc(-c2cnn(C3CCN(CCCN4CC5CN(C(=O)COc6ccc7c(c6)C(=O)N(C6CCC(=O)NC6=O)C7=O)CC5C4)CC3)c2)nc1C(=O)O[C@@H](C(=O)Nc1ccc(F)cc1)c1ccccc1 (stereo partly drawn) [TDH-466, (R)-2-((4-fluorophenyl)amino)-2-oxo-1-phenylethyl 3-amino-6-(1-(1-(3-(5-(2-((2-(2,6-dioxopiperidin-3-yl)-1,3-dioxoisoindolin-5-yl)oxy)acetyl)hexahydropyrrolo[3,4-c]pyrrol-2(1H)-yl)propyl)piperidin-4-yl)-1H-pyrazol-4-yl)pyrazine-2-carboxylate] | – | – | 54.2% | 26.69%
5 | 61.94% | 52.12% | 1.8 nM | Nc1ncc(-c2cnn(C3CCN(CCc4cn(C5CCN(C(=O)CNc6ccc7c(c6)C(=O)N(C6CCC(=O)NC6=O)C7=O)CC5)nn4)CC3)c2)nc1C(=O)O[C@@H](C(=O)Nc1ccc(F)cc1)c1ccccc1 (stereo partly drawn) [TDH-452, (R)-2-((4-fluorophenyl)amino)-2-oxo-1-phenylethyl 3-amino-6-(1-(1-(2-(1-(1-((2-(2,6-dioxopiperidin-3-yl)-1,3-dioxoisoindolin-5-yl)glycyl)piperidin-4-yl)-1H-1,2,3-triazol-4-yl)ethyl)piperidin-4-yl)-1H-pyrazol-4-yl)pyrazine-2-carboxylate] | – | – | 38.27% | 26.02%
6 | 53.05% | 40.54% | 0.78 nM | Nc1ncc(-c2cnn(C3CCN(CCCCCCNC(=O)COc4cccc5c4C(=O)N(C4CCC(=O)NC4=O)C5=O)CC3)c2)nc1C(=O)O[C@@H](C(=O)Nc1ccc(F)cc1)c1ccccc1 (stereo partly drawn) [TDH-133, (R)-2-((4-fluorophenyl)amino)-2-oxo-1-phenylethyl 3-amino-6-(1-(1-(6-(2-((2-(2,6-dioxopiperidin-3-yl)-1,3-dioxoisoindolin-4-yl)oxy)acetamido)hexyl)piperidin-4-yl)-1H-pyrazol-4-yl)pyrazine-2-carboxylate] | 91.87% | 68.81% | – | –
7 | 49.96% | 24.88% | 0.24 nM | Nc1ncc(-c2cnn(C3CCN(C4CC5(CCN(CC6CCN(C(=O)C7CN(C8=CC(=O)N(C9CCC(=O)NC9=O)C8=O)C7)CC6)CC5)C4)CC3)c2)nc1C(=O)O[C@@H](C(=O)Nc1ccc(F)cc1)c1ccccc1 (stereo partly drawn) [TDH-534, (R)-2-((4-fluorophenyl)amino)-2-oxo-1-phenylethyl 3-amino-6-(1-(1-(7-((1-(1-(1-(2,6-dioxopiperidin-3-yl)-2,5-dioxo-2,5-dihydro-1H-pyrrol-3-yl)azetidine-3-carbonyl)piperidin-4-yl)methyl)-7-azaspiro[3.5]nonan-2-yl)piperidin-4-yl)-1H-pyrazol-4-yl)pyrazine-2-carboxylate] | – | – | 21.33% | 22.25%
8 | 46.49% | 75.71% | 3.9 nM | Nc1ncc(-c2cnn(C3CCN(CC4CCN(CCC5CCN(c6cc7c(cc6F)C(=O)N(C6CCC(=O)NC6=O)C7=O)CC5)CC4)CC3)c2)nc1C(=O)O[C@@H](C(=O)Nc1ccc(F)cc1)c1ccccc1 (stereo partly drawn) [TDH-513, (R)-2-((4-fluorophenyl)amino)-2-oxo-1-phenylethyl 3-amino-6-(1-(1-((1-(2-(1-(2-(2,6-dioxopiperidin-3-yl)-6-fluoro-1,3-dioxoisoindolin-5-yl)piperidin-4-yl)ethyl)piperidin-4-yl)methyl)piperidin-4-yl)-1H-pyrazol-4-yl)pyrazine-2-carboxylate] | – | – | 14.47% | −61.68%
9 | 87.46% | 93.6% | 10 nM | Nc1ncc(-c2cnn(C3CCN(CCCN4CCN(C(=O)COc5ccc6c(c5)C(=O)N(C5CCC(=O)NC5=O)C6=O)CC4)CC3)c2)nc1C(=O)O[C@@H](C(=O)Nc1cccc(Cl)c1)c1ccccc1 (stereo partly drawn) [TDH-485, (R)-2-((3-chlorophenyl)amino)-2-oxo-1-phenylethyl 3-amino-6-(1-(1-(3-(4-(2-((2-(2,6-dioxopiperidin-3-yl)-1,3-dioxoisoindolin-5-yl)oxy)acetyl)piperazin-1-yl)propyl)piperidin-4-yl)-1H-pyrazol-4-yl)pyrazine-2-carboxylate] | – | – | 61.51% | 50.03%
